One experiment concerns the target GST-hASK1 (Homo sapiens (Human), UniProt Q99683). Put plainly: ASK1 TR-FRET assay. The class given is biochemical. Particulars: 5 nM GST-hASK1, 100 μM ATP, 2 μM STK Substrate 3. The method, then:
The protein kinase activity of 5 nM GST-hASK1(Life Technologies PV4011) was assayed with 100 μM ATP and 2 μM of HTRF biotinylated STK Substrate 3 (CisBio Kit 62ST3PEJ), at ambient temperature in 25 mM Hepes, pH 7.5, 50 mM NaCl, 10 mM MgCl2, 0.02% Brij-35, 1 mM DTT, and 1% DMSO.
After a 10 minute pre-incubation, ASK1 protein kinase activity was initiated by addition of 10 μL of 300 μM ATP.
A general note: Time-resolved FRET reads energy transfer from a long-lived donor to a nearby acceptor.

A further experiment concerns the target ASK1/MAP3K5 (Homo sapiens (Human), UniProt Q99683). Put plainly: ASK1/MAP3K5 assay by Reaction Biology Corp. The class given is biochemical. The note with it: 20 μM myelin basic protein (MBP), 10 μM ATP. The protocol: ASK1/MAP3K5 was used as the protein kinase and 20 μM of myelin basic protein (MBP) and 10 μM ATP were used as the substrate.
The target of experiment [1] is ASK1 T838 auto phosphorylation in HEK-293T cells (Homo sapiens (Human), UniProt Q99683). Put plainly: ASK1 (AUTO PHOS T838) assay, MSD format. In kind it is cell-based.
Chain of ASK1 T838 auto phosphorylation in HEK-293T cells (Q99683 whole entry): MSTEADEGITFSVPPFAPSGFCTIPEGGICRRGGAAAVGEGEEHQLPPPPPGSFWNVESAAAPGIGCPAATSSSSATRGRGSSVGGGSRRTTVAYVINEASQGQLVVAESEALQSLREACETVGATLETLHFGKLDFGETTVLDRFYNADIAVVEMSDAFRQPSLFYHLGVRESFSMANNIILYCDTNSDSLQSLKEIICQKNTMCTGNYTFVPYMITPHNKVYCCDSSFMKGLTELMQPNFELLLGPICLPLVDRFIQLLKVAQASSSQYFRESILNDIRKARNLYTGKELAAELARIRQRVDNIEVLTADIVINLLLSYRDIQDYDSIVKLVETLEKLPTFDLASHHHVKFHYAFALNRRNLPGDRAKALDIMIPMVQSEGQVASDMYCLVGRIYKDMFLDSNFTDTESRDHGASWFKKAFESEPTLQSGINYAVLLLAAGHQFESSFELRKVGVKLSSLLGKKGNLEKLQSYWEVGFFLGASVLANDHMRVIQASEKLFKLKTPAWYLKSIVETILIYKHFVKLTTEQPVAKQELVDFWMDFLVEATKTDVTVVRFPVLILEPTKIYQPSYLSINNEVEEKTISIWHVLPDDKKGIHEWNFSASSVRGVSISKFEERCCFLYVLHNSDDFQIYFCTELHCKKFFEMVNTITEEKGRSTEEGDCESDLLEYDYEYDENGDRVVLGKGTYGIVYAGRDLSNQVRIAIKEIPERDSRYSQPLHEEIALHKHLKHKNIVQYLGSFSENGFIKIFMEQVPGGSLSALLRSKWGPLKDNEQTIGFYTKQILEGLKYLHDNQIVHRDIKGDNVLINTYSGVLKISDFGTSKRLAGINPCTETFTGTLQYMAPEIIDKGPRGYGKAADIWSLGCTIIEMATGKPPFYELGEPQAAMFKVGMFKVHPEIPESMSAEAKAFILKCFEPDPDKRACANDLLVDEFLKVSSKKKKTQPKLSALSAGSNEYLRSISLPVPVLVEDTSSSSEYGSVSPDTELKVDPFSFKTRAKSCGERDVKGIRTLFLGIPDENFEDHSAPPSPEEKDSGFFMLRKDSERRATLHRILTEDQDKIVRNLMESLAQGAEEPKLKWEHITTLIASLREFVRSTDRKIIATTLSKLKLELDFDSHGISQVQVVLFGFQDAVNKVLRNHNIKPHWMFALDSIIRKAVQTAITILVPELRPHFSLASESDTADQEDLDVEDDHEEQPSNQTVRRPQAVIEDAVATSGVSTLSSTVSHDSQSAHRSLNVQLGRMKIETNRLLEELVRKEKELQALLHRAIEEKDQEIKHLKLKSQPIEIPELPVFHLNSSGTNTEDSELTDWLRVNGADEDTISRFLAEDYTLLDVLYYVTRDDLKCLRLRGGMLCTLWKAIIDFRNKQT
Where [2] appears, read: HEK 293T cells transfected with ASK1-V5 full length plasmid, compounds 1 hr at 37° C., read-out: IC50.

Each structure is given as a SMILES string. Like-named read-outs stand apart in the source and are kept apart here.

Broadly, the IC50 is the concentration that inhibits the measured activity by half.

Chain of GST-hASK1 (Q99683 649-946): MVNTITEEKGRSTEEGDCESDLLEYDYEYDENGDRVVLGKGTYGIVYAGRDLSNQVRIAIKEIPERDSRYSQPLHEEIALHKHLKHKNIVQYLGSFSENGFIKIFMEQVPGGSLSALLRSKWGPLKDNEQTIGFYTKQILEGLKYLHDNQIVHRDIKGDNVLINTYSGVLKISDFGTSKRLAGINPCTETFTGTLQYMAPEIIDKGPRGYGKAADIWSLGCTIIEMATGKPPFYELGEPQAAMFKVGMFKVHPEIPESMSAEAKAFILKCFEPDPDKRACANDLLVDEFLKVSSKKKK
Chain of ASK1/MAP3K5 (Q99683 whole entry): as the sequence (Q99683 whole entry) above

As for `O=C1Nc2cccc(n2)-c2nncn2CCCCOc2ccc(N3C4COCC3C4)cc21` [Example 8, 5^5-(3-Oxa-6-azabicyclo[3.1.1]heptan-6-yl)-1^4H-6-oxa-3-aza-2(2,6)-pyridina-1(3,4)-triazola-5(1,2)-benzenacyclodecaphan-4-one], the values for the IC50 (on GST-hASK1; on ASK1/MAP3K5; in experiment [1] (setting [2])) were below 100 nM, below 100 nM and 1000 to 10000 nM, respectively.
As to `O=C1Nc2cccc(n2)-c2nncn2CCCCOc2ccc(N3CCC(F)(F)CC3)cc21` [Example 12, 5^5-(4,4-Difluoropiperidin-1-yl)-1^4H-6-oxa-3-aza-2(2,6)-pyridina-1(3,4)-triazola-5(1,2)-benzenacyclodecaphan-4-one], the IC50 was below 100 nM on GST-hASK1, below 100 nM at ASK1/MAP3K5 and below 1000 nM in experiment [1] (setting [2]).
For the compound `O=C1Nc2cccc(n2)-c2nncn2CCCCOc2ccc(N3CC(F)(F)C3)cc21` [Example 9, 5^5-(3,3-Difluoroazetidin-1-yl)-1^4H-6-oxa-3-aza-2(2,6)-pyridina-1(3,4)-triazola-5(1,2)-benzenacyclodecaphan-4-one], the IC50 against GST-hASK1 is below 100 nM; against ASK1/MAP3K5, below 100 nM; in experiment [1] (setting [2]), below 1000 nM.
Regarding `Cc1cc(-c2ccc3c(c2)C(=O)Nc2cccc(n2)-c2nncn2CCCCO3)n(C)n1` [Example 34, 5^5-(1,3-Dimethyl-1H-pyrazol-5-yl)-1^4H-6-oxa-3-aza-2(2,6)-pyridina-1(3,4)-triazola-5(1,2)-benzenacyclodecaphan-4-one], the IC50 against GST-hASK1 was below 100 nM; at ASK1/MAP3K5, below 100 nM; in experiment [1] (setting [2]), below 1000 nM.
Regarding `O=C1Nc2cccc(n2)-c2nncn2CCCCOc2ccc(-c3cccnc3)cc21` [Example 26, 5^5-(Pyridin-3-yl)-1^4H-6-oxa-3-aza-2(2,6)-pyridina-1(3,4)-triazola-5(1,2)-benzenacyclodecaphan-4-one], the figures for the IC50 (at GST-hASK1; against ASK1/MAP3K5; in experiment [1] (setting [2])) were below 100 nM, below 100 nM and below 1000 nM, respectively.
For `Cn1cncc1-c1ccc2c(c1)C(=O)Nc1cccc(n1)-c1nncn1CCCCO2` [Example 29, 5^5-(1-Methyl-1H-imidazol-5-yl)-1^4H-6-oxa-3-aza-2(2,6)-pyridina-1(3,4)-triazola-5(1,2)-benzenacyclodecaphan-4-one], the IC50 against GST-hASK1 is below 100 nM; against ASK1/MAP3K5, below 100 nM; in experiment [1] (setting [2]) it was below 1000 nM.
With `O=C1Nc2cccc(n2)-c2nncn2CCCCOc2ccc(-n3cccn3)cc21` [Example 44, 5^5-(1H-Pyrazol-1-yl)-1^4H-6-oxa-3-aza-2(2,6)-pyridina-1(3,4)-triazola-5(1,2)-benzenacyclodecaphan-4-one], the IC50 against GST-hASK1 was below 100 nM; against ASK1/MAP3K5, below 100 nM; in experiment [1] (setting [2]), below 1000 nM.
As for `O=C1Nc2cccc(n2)-c2nncn2CCCCCOc2ccc(N3CC4(COC4)C3)cc21` [Example 173, 5^5-(2-Oxa-6-azaspiro[3.3]heptan-6-yl)-1^4H-6-oxa-3-aza-2(2,6)-pyridina-1(3,4)-triazola-5(1,2)-benzenacycloundecaphan-4-one], the IC50 at GST-hASK1 is below 100 nM; against ASK1/MAP3K5, below 100 nM; in experiment [1] (setting [2]), below 1000 nM.
As for `N#Cc1ccc2c(c1)C(=O)Nc1cccc(n1)-c1nncn1CCCCO2` [Example 20, 4-Oxo-1^4H-6-oxa-3-aza-2(2,6)-pyridina-1(3,4)-triazola-5(1,2)-benzenacyclodecaphane-5^5-carbonitrile], the figures for the IC50 (on GST-hASK1; against ASK1/MAP3K5; in experiment [1] (setting [2])) were below 100 nM, below 100 nM and below 1000 nM, respectively.
For the compound `Cn1nccc1-c1ccc2c(c1)C(=O)Nc1cccc(n1)-c1nncn1CCCCO2` [Example 23, 5^5-(1-Methyl-1H-pyrazol-5-yl)-1^4H-6-oxa-3-aza-2(2,6)-pyridina-1(3,4)-triazola-5(1,2)-benzenacyclodecaphan-4-one], the IC50 against GST-hASK1 was below 100 nM; against ASK1/MAP3K5, below 100 nM; in experiment [1] (setting [2]), below 1000 nM.
In the case of `Cc1nn(C)c(C)c1-c1ccc2c(c1)C(=O)Nc1cccc(n1)-c1nncn1CCCCO2` [Example 33, 5^5-(1,3,5-Trimethyl-1H-pyrazol-4-yl)-1^4H-6-oxa-3-aza-2(2,6)-pyridina-1(3,4)-triazola-5(1,2)-benzenacyclodecaphan-4-one], the 50% inhibitory concentration (IC50) was below 100 nM against GST-hASK1, below 100 nM at ASK1/MAP3K5 and below 1000 nM in experiment [1] (setting [2]).
For the compound `C[C@H]1CCCOc2ccc(-c3cnn(C)c3)cc2C(=O)Nc2cccc(n2)-c2nncn21` [Example 96, (S)-10-Methyl-5^5-(1-methyl-1H-pyrazol-4-yl)-1^4H-6-oxa-3-aza-2(2,6)-pyridina-1(3,4)-triazola-5(1,2)-benzenacyclodecaphan-4-one], the IC50 against GST-hASK1 was below 100 nM; against ASK1/MAP3K5, below 100 nM; in experiment [1] (setting [2]), below 1000 nM.
Regarding `O=C1Nc2cccc(n2)-c2nncn2CCCCOc2ccc(-c3ccncc3)cc21` [Example 27, 5^5-(Pyridin-4-yl)-1^4H-6-oxa-3-aza-2(2,6)-pyridina-1(3,4)-triazola-5(1,2)-benzenacyclodecaphan-4-one], the IC50 was below 100 nM on GST-hASK1, below 100 nM against ASK1/MAP3K5 and below 1000 nM in experiment [1] (setting [2]).
As for `O=C1Nc2cccc(n2)-c2nncn2CCCCOc2ccc(N3C4CCC3COC4)cc21` [Example 5, 5^5-(3-Oxa-8-azabicyclo[3.2.1]octan-8-yl)-1^4H-6-oxa-3-aza-2(2,6)-pyridina-1(3,4)-triazola-5(1,2)-benzenacyclodecaphan-4-one], the concentration for half-maximal inhibition (IC50) at GST-hASK1 was below 100 nM; against ASK1/MAP3K5, below 100 nM; in experiment [1] (setting [2]), below 1000 nM.
On to `O=C1Nc2cccc(n2)-c2nncn2CCCCCOc2ccc(N3CCOCC3)cc21` [Example 172, 5^5-Morpholino-1^4H-6-oxa-3-aza-2(2,6)-pyridina-1(3,4)-triazola-5(1,2)-benzenacycloundecaphan-4-one], for which the IC50 was below 100 nM against GST-hASK1, below 100 nM against ASK1/MAP3K5 and below 1000 nM in experiment [1] (setting [2]).
As for `O=C1Nc2cccc(n2)-c2nncn2CCCCOc2ccc(C3CCOCC3)cc21` [Example 17, 5^5-(Tetrahydro-2H-pyran-4-yl)-1^4H-6-oxa-3-aza-2(2,6)-pyridina-1(3,4)-triazola-5(1,2)-benzenacyclodecaphan-4-one], the IC50 against GST-hASK1 was below 100 nM; against ASK1/MAP3K5 it was below 100 nM; in experiment [1] (setting [2]), below 1000 nM.
Take `Cc1ccc2c(c1)C(=O)Nc1cccc(n1)-c1nncn1CCCCO2` [Example 18, 5^5-Methyl-1^4H-6-oxa-3-aza-2(2,6)-pyridina-1(3,4)-triazola-5(1,2)-benzenacyclodecaphan-4-one]: the IC50 is below 100 nM on GST-hASK1, below 100 nM against ASK1/MAP3K5 and below 1000 nM in experiment [1] (setting [2]).
As for `O=C1Nc2cccc(n2)-c2nncn2C/C=C/COc2c(Br)cccc21` [Example 163, (E)-5^3-Bromo-1^4H-6-oxa-3-aza-2(2,6)-pyridina-1(3,4)-triazola-5(1,2)-benzenacyclodecaphan-8-en-4-one], the figures for the IC50 (against GST-hASK1; in experiment [1] (setting [2])) were 100 to 1000 nM and above 10000 nM, respectively.
For `O=C1Nc2cccc(n2)-c2nncn2C/C=C\COc2ccc(Br)cc21` [Example 161, (Z)-5^5-Bromo-1^4H-6-oxa-3-aza-2(2,6)-pyridina-1(3,4)-triazola-5(1,2)-benzenacyclodecaphan-8-en-4-one], the IC50 against GST-hASK1 was below 100 nM; in experiment [1], 1000 to 10000 nM.
For the compound `Cn1cc(-c2ccc3c(c2)C(=O)Nc2cccc(n2)-c2nncn2CCCCO3)nn1` [Example 30, 5^5-(1-Methyl-1H-1,2,3-triazol-4-yl)-1^4H-6-oxa-3-aza-2(2,6)-pyridina-1(3,4)-triazola-5(1,2)-benzenacyclodecaphan-4-one], the IC50 is below 100 nM against GST-hASK1 and 1000 to 10000 nM in experiment [1] (setting [2]).
The matching figures for `O=C1Nc2cccc(n2)-c2nncn2CCCCOc2ccc(N3CC4CCC(C3)O4)cc21` [Example 7, 5^5-(8-Oxa-3-azabicyclo[3.2.1]octan-3-yl)-1^4H-6-oxa-3-aza-2(2,6)-pyridina-1(3,4)-triazola-5(1,2)-benzenacyclodecaphan-4-one]: below 100 nM and below 1000 nM.
For `O=C1Nc2cccc(n2)-c2nncn2C/C=C/COc2ccc(Br)cc21` [Example 162, (E)-5^5-Bromo-1^4H-6-oxa-3-aza-2(2,6)-pyridina-1(3,4)-triazola-5(1,2)-benzenacyclodecaphan-8-en-4-one], the IC50 is below 100 nM on GST-hASK1 and 1000 to 10000 nM in experiment [1] (setting [2]).
Regarding `O=C1Nc2cccc(n2)-c2nncn2C/C=C/COc2cc(F)ccc21` [Example 157, (E)-5^4-Fluoro-1^4H-6-oxa-3-aza-2(2,6)-pyridina-1(3,4)-triazola-5(1,2)-benzenacyclodecaphan-8-en-4-one], the 50% inhibitory concentration (IC50) against GST-hASK1 lay in the range of 100 to 1000 nM; in experiment [1] (setting [2]), 1000 to 10000 nM.
The like results for `O=C1Nc2cccc(n2)-c2nncn2CCCCOc2ccc(C3=CCOCC3)cc21` [Example 16, 5^5-(3,6-Dihydro-2H-pyran-4-yl)-1^4H-6-oxa-3-aza-2(2,6)-pyridina-1(3,4)-triazola-5(1,2)-benzenacyclodecaphan-4-one] were, in that order, below 100 nM and below 1000 nM.
The matching figures for `O=C1Nc2cccc(n2)-c2nncn2C/C=C\COc2cc(C(F)(F)F)ccc21` [Example 155, (Z)-5^4-(Trifluoromethyl)-1^4H-6-oxa-3-aza-2(2,6)-pyridina-1(3,4)-triazola-5(1,2)-benzenacyclodecaphan-8-en-4-one]: 100 to 1000 nM and 1000 to 10000 nM.
